The conditions of data set [1]: cited from earlier work.
The test system of data set [2] is LDL (low-density lipoprotein). As to the kind of experiment: oxidation resistance of LDL (study by Milde and Elstner). Format: biochemical. As to conditions: lutein as a powder or dissolved in ethanol vs. solubilizate. The source says:
A study by J. Milde and E. F. Elstner (Technical University of Munich) has shown that lutein has no effect on the oxidation resistance of LDL (low-density lipoprotein) as a powder or dissolved in ethanol. […] The micellated lutein from the solubilizate is enriched in the LDL by a factor of 9 more (10 mole lutein/mole LDL).

The source of these data is patent US20070148193A1, “Lutein concentrate” (AQUANOVA GERMAN SOLUBILISATE TECHNOLOGIES (AGT) GM, priority 2003, published 2007).

In the case of `CC1=C[C@H](O)CC(C)(C)[C@H]1/C=C/C(C)=C/C=C/C(C)=C/C=C/C=C(C)/C=C/C=C(C)/C=C/C1=C(C)C[C@@H](O)CC1(C)C` [lutein], in data set [1], the “solubility in water (background statement)” value is given as “practically insoluble in water”. Moreover, the “effect on the oxidation resistance of LDL” value in data set [2] was “no effect”.

As for lutein ester, in data set [1], the “solubility in water (background statement)” value is listed as “practically insoluble in water”.
